Data reported in the NIST ThermoML archive (doi:10.1016/j.fluid.2016.02.009).
Numbers after ± are expanded uncertainties.

Details: Liquid, Vibrating tube method

CCCCCOCCCCC [dipentyl ether]
Details | mass density [kg/m3]
283.15 K, 100 kPa | 790.99 ± 0.29
283.15 K, 5000 kPa | 794.85 ± 0.32
283.15 K, 10000 kPa | 798.47 ± 0.35
283.15 K, 15000 kPa | 801.9 ± 0.38
283.15 K, 20000 kPa | 805.2 ± 0.41
283.15 K, 25000 kPa | 808.38 ± 0.43
283.15 K, 30000 kPa | 811.47 ± 0.46
283.15 K, 35000 kPa | 814.44 ± 0.49
283.15 K, 40000 kPa | 817.31 ± 0.52
283.15 K, 45000 kPa | 820.12 ± 0.55
283.15 K, 50000 kPa | 822.84 ± 0.58
283.15 K, 55000 kPa | 825.48 ± 0.61
283.15 K, 60000 kPa | 828.06 ± 0.63
283.15 K, 65000 kPa | 830.58 ± 0.66
288.15 K, 100 kPa | 786.98 ± 0.3
288.15 K, 5000 kPa | 790.95 ± 0.32
288.15 K, 10000 kPa | 794.65 ± 0.35
288.15 K, 15000 kPa | 798.17 ± 0.38
288.15 K, 20000 kPa | 801.55 ± 0.41
288.15 K, 25000 kPa | 804.81 ± 0.44
288.15 K, 30000 kPa | 807.94 ± 0.46
288.15 K, 35000 kPa | 810.97 ± 0.49
288.15 K, 40000 kPa | 813.93 ± 0.52
288.15 K, 45000 kPa | 816.78 ± 0.55
288.15 K, 50000 kPa | 819.54 ± 0.58
288.15 K, 55000 kPa | 822.24 ± 0.61
288.15 K, 60000 kPa | 824.87 ± 0.64
288.15 K, 65000 kPa | 827.41 ± 0.67
293.15 K, 100 kPa | 782.96 ± 0.3
293.15 K, 5000 kPa | 787.04 ± 0.32
293.15 K, 10000 kPa | 790.83 ± 0.35
293.15 K, 15000 kPa | 794.44 ± 0.38
293.15 K, 20000 kPa | 797.91 ± 0.41
293.15 K, 25000 kPa | 801.23 ± 0.44
293.15 K, 30000 kPa | 804.44 ± 0.47
293.15 K, 35000 kPa | 807.54 ± 0.5
293.15 K, 40000 kPa | 810.53 ± 0.53
293.15 K, 45000 kPa | 813.44 ± 0.56
293.15 K, 50000 kPa | 816.26 ± 0.59
293.15 K, 55000 kPa | 819.01 ± 0.62
293.15 K, 60000 kPa | 821.67 ± 0.65
293.15 K, 65000 kPa | 824.26 ± 0.68
298.15 K, 100 kPa | 778.94 ± 0.3
298.15 K, 5000 kPa | 783.12 ± 0.32
298.15 K, 10000 kPa | 787.02 ± 0.35
298.15 K, 15000 kPa | 790.73 ± 0.38
298.15 K, 20000 kPa | 794.27 ± 0.41
298.15 K, 25000 kPa | 797.69 ± 0.44
298.15 K, 30000 kPa | 800.97 ± 0.47
298.15 K, 35000 kPa | 804.13 ± 0.5
298.15 K, 40000 kPa | 807.2 ± 0.53
298.15 K, 45000 kPa | 810.16 ± 0.57
298.15 K, 50000 kPa | 813.04 ± 0.6
298.15 K, 55000 kPa | 815.82 ± 0.63
298.15 K, 60000 kPa | 818.54 ± 0.66
298.15 K, 65000 kPa | 821.19 ± 0.68
303.15 K, 100 kPa | 774.9 ± 0.3
303.15 K, 5000 kPa | 779.22 ± 0.32
303.15 K, 10000 kPa | 783.2 ± 0.35
303.15 K, 15000 kPa | 787 ± 0.38
303.15 K, 20000 kPa | 790.65 ± 0.41
303.15 K, 25000 kPa | 794.13 ± 0.44
303.15 K, 30000 kPa | 797.48 ± 0.47
303.15 K, 35000 kPa | 800.72 ± 0.51
303.15 K, 40000 kPa | 803.84 ± 0.54
303.15 K, 45000 kPa | 806.86 ± 0.57
303.15 K, 50000 kPa | 809.78 ± 0.6
303.15 K, 55000 kPa | 812.62 ± 0.63
303.15 K, 60000 kPa | 815.39 ± 0.66
303.15 K, 65000 kPa | 818.05 ± 0.69
308.15 K, 100 kPa | 770.87 ± 0.3
308.15 K, 5000 kPa | 775.29 ± 0.33
308.15 K, 10000 kPa | 779.38 ± 0.36
308.15 K, 15000 kPa | 783.28 ± 0.39
308.15 K, 20000 kPa | 787 ± 0.42
308.15 K, 25000 kPa | 790.57 ± 0.45
308.15 K, 30000 kPa | 793.99 ± 0.48
308.15 K, 35000 kPa | 797.3 ± 0.51
308.15 K, 40000 kPa | 800.48 ± 0.54
308.15 K, 45000 kPa | 803.56 ± 0.58
308.15 K, 50000 kPa | 806.55 ± 0.61
308.15 K, 55000 kPa | 809.43 ± 0.64
308.15 K, 60000 kPa | 812.24 ± 0.67
308.15 K, 65000 kPa | 814.95 ± 0.7
313.15 K, 100 kPa | 766.82 ± 0.3
313.15 K, 5000 kPa | 771.35 ± 0.33
313.15 K, 10000 kPa | 775.57 ± 0.36
313.15 K, 15000 kPa | 779.56 ± 0.39
313.15 K, 20000 kPa | 783.37 ± 0.42
313.15 K, 25000 kPa | 787.03 ± 0.45
313.15 K, 30000 kPa | 790.53 ± 0.48
313.15 K, 35000 kPa | 793.9 ± 0.51
313.15 K, 40000 kPa | 797.15 ± 0.55
313.15 K, 45000 kPa | 800.28 ± 0.58
313.15 K, 50000 kPa | 803.33 ± 0.62
313.15 K, 55000 kPa | 806.26 ± 0.65
313.15 K, 60000 kPa | 809.11 ± 0.68
313.15 K, 65000 kPa | 811.88 ± 0.71
318.15 K, 100 kPa | 762.76 ± 0.3
318.15 K, 5000 kPa | 767.42 ± 0.33
318.15 K, 10000 kPa | 771.74 ± 0.36
318.15 K, 15000 kPa | 775.84 ± 0.39
318.15 K, 20000 kPa | 779.77 ± 0.42
318.15 K, 25000 kPa | 783.5 ± 0.45
318.15 K, 30000 kPa | 787.08 ± 0.48
318.15 K, 35000 kPa | 790.52 ± 0.52
318.15 K, 40000 kPa | 793.82 ± 0.55
318.15 K, 45000 kPa | 797.02 ± 0.59
318.15 K, 50000 kPa | 800.1 ± 0.62
318.15 K, 55000 kPa | 803.09 ± 0.65
318.15 K, 60000 kPa | 806 ± 0.69
318.15 K, 65000 kPa | 808.83 ± 0.72
323.15 K, 100 kPa | 758.69 ± 0.3
323.15 K, 5000 kPa | 763.48 ± 0.33
323.15 K, 10000 kPa | 767.94 ± 0.36
323.15 K, 15000 kPa | 772.13 ± 0.39
323.15 K, 20000 kPa | 776.12 ± 0.42
323.15 K, 25000 kPa | 779.95 ± 0.46
323.15 K, 30000 kPa | 783.62 ± 0.49
323.15 K, 35000 kPa | 787.13 ± 0.52
323.15 K, 40000 kPa | 790.51 ± 0.56
323.15 K, 45000 kPa | 793.75 ± 0.6
323.15 K, 50000 kPa | 796.9 ± 0.63
323.15 K, 55000 kPa | 799.95 ± 0.66
323.15 K, 60000 kPa | 802.89 ± 0.69
323.15 K, 65000 kPa | 805.77 ± 0.72
328.15 K, 100 kPa | 754.6 ± 0.3
328.15 K, 5000 kPa | 759.51 ± 0.33
328.15 K, 10000 kPa | 764.08 ± 0.36
328.15 K, 15000 kPa | 768.39 ± 0.39
328.15 K, 20000 kPa | 772.51 ± 0.43
328.15 K, 25000 kPa | 776.42 ± 0.46
328.15 K, 30000 kPa | 780.18 ± 0.49
328.15 K, 35000 kPa | 783.75 ± 0.53
328.15 K, 40000 kPa | 787.17 ± 0.57
328.15 K, 45000 kPa | 790.5 ± 0.6
328.15 K, 50000 kPa | 793.7 ± 0.64
328.15 K, 55000 kPa | 796.82 ± 0.67
328.15 K, 60000 kPa | 799.82 ± 0.7
328.15 K, 65000 kPa | 802.72 ± 0.73
333.15 K, 100 kPa | 750.51 ± 0.3
333.15 K, 5000 kPa | 755.54 ± 0.33
333.15 K, 10000 kPa | 760.26 ± 0.36
333.15 K, 15000 kPa | 764.69 ± 0.4
333.15 K, 20000 kPa | 768.87 ± 0.43
333.15 K, 25000 kPa | 772.87 ± 0.46
333.15 K, 30000 kPa | 776.68 ± 0.5
333.15 K, 35000 kPa | 780.35 ± 0.53
333.15 K, 40000 kPa | 783.87 ± 0.57
333.15 K, 45000 kPa | 787.29 ± 0.61
333.15 K, 50000 kPa | 790.54 ± 0.64
333.15 K, 55000 kPa | 793.66 ± 0.68
333.15 K, 60000 kPa | 796.72 ± 0.71
333.15 K, 65000 kPa | 799.67 ± 0.74
